Measured values: US20210214303A1, “SCORPION VENOM BENZOQUINONE DERIVATIVES AND USES THEREOF” (priority 2018, published 2021)
Converted amounts (≈) assume the structure as drawn. “Also recorded” adds a separate entry of the source.

Columns and labels:
[1] = system: Candida. albicans; assay: activity against pathogenic fungus; type: cell-based
[2] = system: E. coli; assay: activity against gram negative E. coli; type: cell-based
[3] = system: Jurkat cells; assay: Annexin V / viability dye flow cytometry apoptosis assay; type: cell-based; details: 25 μM; 0, 4, 8 and 12 h
Description: In this assay, Jurkat cells were incubated with either the red or blue 1,4 benzoquinone at a concentration of 25 μM for 0, 4, 8 and 12 h. Cells were then stained with the Fixable Viability Dye eFluor 780 and FITC Annexin V and analyzed using flow cytometry. Positive staining with Annexin V is a marker of early apoptosis, and positive staining with both Annexin V and the viability dye is a marker of late apoptosis/necrosis. Double negatives are live cells. Cells were grouped into three categories (live, early apoptotic, and late apoptotic/necrotic). Data from three independent experiments are shown as mean±SEM (standard error of mean).

[4] = system: fresh human erythrocytes; assay: Hemolysis assay; type: cell-based; details: 2 hours, all concentrations tested (even higher than 100 μg/mL)
Description: FIG. 14A illustrates a cytotoxic activity assay of the red and blue 1,4 benzoquinones. Hemolysis was evaluated using fresh human erythrocytes. Lysis was evaluated by the absorbance of the supernatant at 415 nm after 2 hours of incubation with different concentrations of the 1,4 benzoquinones. Triton X-100 was used as positive control.
Hemolysis assay: The hemolytic activity was evaluated for both of the 1,4 benzoquinones using fresh human erythrocytes. Fresh human erythrocytes were washed four times with phosphate buffered saline (PBS) and incubated for 2 h at 37° C. with different concentration of the 1,4 benzoquinones. A gradient of Triton X-100 was used as positive control of hemolysis. After incubation, the erythrocytes suspension was centrifuged at 400×g for 10 min and supernatant was recovered. Hemolysis was determined by the absorbance of the supernatant at 415 nm.

[5] = system: Jurkat (T cell leukemia); assay: cytotoxicity assay, LDH release; type: cell-based, human; details: 1, 5, and 25 μM, 12 hours
Description: (§1) Cytotoxicity to PBMCs and to Neoplastic Cells: The cytotoxicity of the 1,4 benzoquinones of the disclosure was tested with peripheral blood mononuclear cells (PBMCs) and various human neoplastic cell lines: A549 (adenocarcinomic lung epithelial cells), Jurkat (T cell leukemia), TE 671 (rhabdomyosarcoma cells) and SH-SY5Y (bone marrow neuroblastoma cells).
(§2) PBMCs were obtained from healthy blood donors and isolated by Ficoll-Paque PLUS density gradient centrifugation and resuspended in RPMI-1640 medium supplemented with 10% fetal calf serum. Cells were incubated at 37° C. in 5% CO2 overnight and non-adherent cells were recovered and used for subsequent experiments. The neoplastic cell lines were cultured according to the ATCC guidelines.
(§3) For cytotoxicity assays, cells were resuspended in DMEM without phenol red, supplemented with 2% heat-inactivated fetal calf serum. Cells were plated in 96-well polystyrene cell culture plates (2×10^4 to 2×10^5 cells/well depending on the cell type) and incubated at 37° C. in 5% CO2 for 8 hours to promote cell adhesion to the well's surface. The red and blue 1,4 benzoquinones were administered to achieve final concentrations of 1, 5, and 25 μM. Cells were then incubated at 37° C. in 5% CO2 for 12 hours. Following the incubation period, plates were centrifuged at 300×g for 10 minutes and supernatants were harvested to evaluate cell viability with the CytoTox 96@ Non-Radioactive Cytotoxicity Assay (Promega). This assay quantitatively measures lactate dehydrogenase (LDH), a stable cytosolic enzyme that is released upon cell lysis. The released LDH in the culture supernatants was measured with a colorimetric coupled enzymatic assay according to the manufacturer's instructions.

[6] = system: A549 (adenocarcinomic lung epithelial cells); assay: cytotoxicity assay, LDH release; type: cell-based, human; details: 1, 5, and 25 μM, 12 hours
Description: as §1, §2, §3

[7] = system: TE 671 (rhabdomyosarcoma cells); assay: cytotoxicity assay, LDH release; type: cell-based, human; details: 1, 5, and 25 μM, 12 hours
Description: as §1, §2, §3

[8] = system: clinical isolates of methicillin-resistant S. aureus (MRSA); assay: Minimum inhibitory concentration, Table 1, MRSA clinical isolates; type: cell-based, Staphylococcus aureus; as to sensitive/resistant (growth): key: S Sensitive (did not grow the crop); R resistant (bacterial growth)
[9] = system: peripheral blood mononuclear cells (PBMCs); assay: cytotoxicity assay, LDH release; type: cell-based, human; details: 25 μM, 12 hours
Description: FIG. 14B illustrates a cytotoxic effect of the 1,4 benzoquinones of the disclosure on peripheral blood mononuclear cells (PBMCs). PBMCs were incubated with the red and blue 1,4 benzoquinones at a concentration of 25 μM for 12 hours, and cell death was evaluated by the release of the stable cytosolic enzyme lactate dehydrogenase. […] Each result is reported as the mean±SD.
as §1, §2, §3

[10] = system: Staphylococcus aureus; assay: broth microdilution assay (MIC); type: cell-based; details: S. aureus, read-out: minimum inhibitory concentration (MIC)
Description: FIG. 3D illustrates the determination of the minimal inhibitory concentrations (MICs) of the red and blue 1,4 benzoquinones against Staphylococcus aureus. The MICs determined by the broth microdilution assay are 4 μg/mL for the red 1,4 benzoquinone and 6 μg/mL for the blue 1,4 benzoquinone. Ampicillin was used as a positive control. Each result is reported as the mean±SD.
(§4) This difference was confirmed using a broth microdilution assay (FIG. 3D). The minimum inhibitory concentration (MIC) for S. aureus growth was 4 μg/mL for the red 1,4 benzoquinone and 6 μg/mL for the blue 1,4 benzoquinone (FIG. 3D, Table 1). Ampicillin (MIC=0.5 μg/mL) was used as a positive control (ESCMID Eo (2003) Clin. Microbiol. Infect. 9: ix-xv; Pieterse et al., (2010) Brazil. J. Microbiol. 41: 133-145). These compounds were bactericidal at their MICs, killing 90% of S. aureus in 6 h and 99.9% in 24 h (Table 2).

[11] = system: Staphylococcus aureus; assay: disk-diffusion assay; type: cell-based
Description: Ampicillin (5 μg) was used as a positive control.
as §4

COC1=CC(=O)C(SC)=C(SC)C1=O [blue 1,4 benzoquinone, 5-methoxy-2,3-bis(methylthio)cyclohexa-2,5-diene-1,4-dione]
activity against the pathogenic fungus Candida. albicans [1]: Neither 1,4 benzoquinone showed activity
activity against gram negative E. coli [2]: neither compound was found to have appreciable activity; also recorded: Neither 1,4 benzoquinone showed activity
apoptosis (Annexin V staining, loss of cell membrane asymmetry) [3]: triggers apoptosis
hemolytic activity [4]: no erythrocyte hemolysis was observed; also recorded: Neither 1,4 benzoquinone showed hemolytic activity
cytotoxic effect on Jurkat cells (LDH release) [5]: comparably potent in inducing death
cytotoxic effect on A549 cells (LDH release) [6]: remained relatively unaffected
cytotoxic effect on TE 671 cells (LDH release) [7]: comparably potent in inducing death
MIC ([8]; Staphylococcus aureus, MRSA): > 64 µg/mL
MIC ([8]; strain 01 2075): >64 µg/mL
sensitive/resistant (growth) ([8]; strain 01 2075, 0.5 μg/ml): R
sensitive/resistant (growth) ([8]; strain 01 2075, 1 μg/ml): R
sensitive/resistant (growth) ([8]; strain 01 2075, 2 μg/ml): R
sensitive/resistant (growth) ([8]; strain 01 2075, 4 μg/ml): R
sensitive/resistant (growth) ([8]; strain 01 2075, 8 μg/ml): R
sensitive/resistant (growth) ([8]; strain 01 2075, 16 μg/ml): R
sensitive/resistant (growth) ([8]; strain 01 2075, 32 μg/ml): R
sensitive/resistant (growth) ([8]; strain 01 2075, 64 μg/ml): R
MIC ([8]; strain 01 2104): >64 µg/mL
sensitive/resistant (growth) ([8]; strain 01 2104, 0.5 μg/ml): R
sensitive/resistant (growth) ([8]; strain 01 2104, 1 μg/ml): R
sensitive/resistant (growth) ([8]; strain 01 2104, 2 μg/ml): R
sensitive/resistant (growth) ([8]; strain 01 2104, 4 μg/ml): R
sensitive/resistant (growth) ([8]; strain 01 2104, 8 μg/ml): R
sensitive/resistant (growth) ([8]; strain 01 2104, 16 μg/ml): R
sensitive/resistant (growth) ([8]; strain 01 2104, 32 μg/ml): R
sensitive/resistant (growth) ([8]; strain 01 2104, 64 μg/ml): R
sensitive/resistant (growth) ([8]; strain 09 3001, 0.5 μg/ml): R
sensitive/resistant (growth) ([8]; strain 09 3001, 1 μg/ml): R
sensitive/resistant (growth) ([8]; strain 09 3001, 2 μg/ml): R
sensitive/resistant (growth) ([8]; strain 09 3001, 4 μg/ml): R
sensitive/resistant (growth) ([8]; strain 09 3001, 8 μg/ml): R
sensitive/resistant (growth) ([8]; strain 09 3001, 16 μg/ml): R
sensitive/resistant (growth) ([8]; strain 09 3001, 32 μg/ml): R
sensitive/resistant (growth) ([8]; strain 09 3001, 64 μg/ml): R
MIC ([8]; strain 21 2001): >64 µg/mL
sensitive/resistant (growth) ([8]; strain 21 2001, 0.5 μg/ml): R
sensitive/resistant (growth) ([8]; strain 21 2001, 1 μg/ml): R
sensitive/resistant (growth) ([8]; strain 21 2001, 2 μg/ml): R
sensitive/resistant (growth) ([8]; strain 21 2001, 4 μg/ml): R
sensitive/resistant (growth) ([8]; strain 21 2001, 8 μg/ml): R
sensitive/resistant (growth) ([8]; strain 21 2001, 16 μg/ml): R
sensitive/resistant (growth) ([8]; strain 21 2001, 32 μg/ml): R
sensitive/resistant (growth) ([8]; strain 21 2001, 64 μg/ml): R
PBMCs killed [9]: 50%
cytotoxic effect on PBMCs (LDH release) [9]: cytotoxic against PBMCs
MIC [10]: 6 µg/mL (≈ 26.1 µM)
inhibition of S. aureus growth [11]: clear inhibition; also recorded: inhibitory activity
